# From PMC10900215 (JACS Au, 2024)
# Where “and” joins values, the source holds several entries; their conditions need not be identical. Identical values can stand only once.
# Tests used:
# [1] = biological target: T1, ternary complex CRBN/PROTAC/METTL3–14 (Homo sapiens, UniProt Q86U44+Q96SW2); test: FRET-based ternary complex formation assay (TCFA); type: binding; settings: for TCFA amplitude (mean ± SEM): Hook curve amplitude, fraction of the maximum of compound 16; for ECmax (nM) ± SD: PROTAC concentration at the maximum of the signal in the TCFA
# T1 construct: methyltransferase domains (MTD) of METTL3 (residues 354–580); His6 (N, cleaved yes); made in house; host or cells: METTL3-MTD/METTL14-MTD: baculovirus/Sf9; CRBN-TBD: E. coli Rosetta (DE3), co-expressed with BirA
# Protocol: For protein expression, suspension cultures of Sf9 cells in […] medium (Thermo Fisher) were infected at a density of 2 × 10^6 mL^–1. […] The complex was further purified by size exclusion chromatography using a Superdex 200 Increase 10/300 GL column (Cytiva) in 20 mM Tris-Cl, pH 8.0, and 200 mM KCl. The complex was aliquoted and flash-frozen in liquid nitrogen and stored at −80 °C until further use.
# Ternary complex formation between the PROTACs, METTL3, and CRBN was quantified by a homogeneous time-resolved fluorescence (HTRF)-based enzyme assay. […] Curves of titrations with the PROTACs were plotted in GraphPad Prism 9.5.1 and fitted with a Gaussian function, if appropriate. […] CRBN^TBD-Avi(biotin) was used at a final concentration of 10 nM. […] Anti-GST Eu^3+-labeled antibody (Cisbio, 61GSTKLB) was used at a final concentration of 0.8 nM. The final reaction volume was 20 μL in 50 mM HEPES (pH 7.5), 150 mM NaCl, 0.1% BSA, 100 mM KF. […] The ratio of the emissions [drawing 1] was considered for further analysis. […] The concentrations resulting in the maximum signal (ECmax) and the amplitudes of the Hook curves were determined from the parameters of the Gaussian fit (if appropriate) or as the coordinates of the data-point with the highest TR-FRET signal.
# For the ternary complex formation assay (TCFA), one of the protein partners must have a GST-tag and the other a biotin-tag.
# METTL3-14 = METTL3-14 (Homo sapiens, UniProt Q86U44); test: biochemical; design: with the full-length complex, the recombinant complex construct pFastBacDual-StrepII-GFP-TEV-METTL3-His-TEV-METTL14 was expressed; StrepII (N); GFP (N); TEV site (N); made in house; host or cells: baculovirus/Sf9 insect cells; settings: inhibition of catalytic activity of METTL3-14, binary FRET assay
# Text: For determining the half maximal inhibitory concentration (IC50) with the full-length complex, the recombinant complex construct pFastBacDual-StrepII-GFP-TEV-METTL3-His-TEV-METTL14 was expressed using the baculovirus/Sf9 insect cell expression system and purified as described previously.[21]
# The inhibitory potencies of the PROTACs for METTL3 were quantified by a homogeneous time-resolved fluorescence (HTRF)-based enzyme assay as previously described.[40]
# METTL14 = test: Cellular degradation assay (Western blot), METTL14 in MOLM-13; type: cell-based, human; settings: MOLM-13, 24 h, 2 μM compound
# Protocol: (§1) MOLM-13, NOMO-1, THP-1, Kasumi-1, PC3, and DU145 cell lines were obtained from DSMZ-German Collection of Microorganisms and Cell Cultures GmbH. Cells were cultured in RPMI 1640 medium (11875093, Thermo Fisher Scientific) containing 10% FBS (16140071, Thermo Fisher Scientific) and 1% penicillin-streptomycin (15140122, Thermo Fisher Scientific) in 5% CO2 at 37 °C in a humidified incubator, with maintained cell densities at 0.5–1 × 10^6 cells/mL. All cell lines were tested negative for mycoplasma contamination (PCR-based assay by Microsynth, Switzerland).
# (§2) METTL3 (and METTL14) protein degradation was monitored by Western blot. Cells were treated with the indicated concentration of PROTACs or DMSO control (0.1% (v/v)) for 24h, 37 °C with 5% CO2. Samples were then collected and lysed with RIPA buffer with added protease inhibitors (11697498001, Roche). After SDS-PAGE, proteins were transferred to a nitrocellulose membrane, blocked (with 5% milk, 0.5% BSA in TBST buffer), and incubated overnight with primary antibodies. The following antibodies were used: GAPDH (no. 2118, Cell Signaling, 1:4000), β-actin (ab8226, Abcam, 1:2000), METTL3 (ab195352, Abcam, 1:1000), and METTL14 (ab220031, Abcam, 1:1000). Membranes were scanned using an LI-COR Odyssey DLx imager after incubation with appropriate secondary antibodies (antimouse IgG IRDye 680RD (926–68072, LI-COR, 1:10000) and goat anti-Rabbit IgG IRDye 800CW (926–32211, LI-COR, 1:10000)). Densitometry was performed in Image Studio Lite software and analyzed in GraphPad Prism 9.
# [2] = Cell viability assay (CellTiter-Glo) on MOLM-13; type: cell-based; settings: human, MOLM-13 cells, average of two biological replicates; for viability at 72 h, […]: 2.5 µM
# Protocol: as §1
# Cell viability was determined using a CellTiter-Glo luminescent cell viability assay (Promega) based on the detection of ATP according to the manufacturer’s instructions. 100 μL of the reagent was added to each well and incubated for 10 min at room temperature. […] Background luminescence value was obtained from wells containing the CellTiter-Glo reagent and medium without cells. The resulting data was analyzed in GraphPad Prism 9.
# METTL3 = biological target: T2, METTL3 (Homo sapiens, UniProt Q86U44); test: Cellular degradation assay (Western blot), METTL3 in MOLM-13; type: cell-based; settings: MOLM-13, 24 h, 2 μM compound
# T2 construct: METTL3–14 degradation up to 70% of the endogenous level; endogenous in cells; host or cells: MOLM-13, PC3, DU145
# Protocol: as §1, §2
# T2 sequence (Q86U44 2-580 limits assumed): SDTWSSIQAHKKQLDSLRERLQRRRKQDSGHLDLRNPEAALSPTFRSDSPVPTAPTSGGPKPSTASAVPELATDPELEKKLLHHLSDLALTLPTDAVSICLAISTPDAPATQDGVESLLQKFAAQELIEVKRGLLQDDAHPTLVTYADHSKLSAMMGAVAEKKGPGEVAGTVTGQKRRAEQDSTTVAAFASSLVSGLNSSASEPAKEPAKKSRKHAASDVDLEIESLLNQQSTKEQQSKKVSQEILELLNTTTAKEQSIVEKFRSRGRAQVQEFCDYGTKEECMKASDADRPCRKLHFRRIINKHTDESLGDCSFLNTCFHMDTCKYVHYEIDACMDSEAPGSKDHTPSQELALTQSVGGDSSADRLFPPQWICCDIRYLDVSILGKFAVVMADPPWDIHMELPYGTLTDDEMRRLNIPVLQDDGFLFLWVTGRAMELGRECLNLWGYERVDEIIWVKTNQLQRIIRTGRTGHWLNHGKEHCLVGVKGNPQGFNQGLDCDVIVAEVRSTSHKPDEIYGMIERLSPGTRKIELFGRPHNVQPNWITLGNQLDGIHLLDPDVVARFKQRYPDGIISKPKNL
# T2 sequence (Q9HCE5 whole entry partner): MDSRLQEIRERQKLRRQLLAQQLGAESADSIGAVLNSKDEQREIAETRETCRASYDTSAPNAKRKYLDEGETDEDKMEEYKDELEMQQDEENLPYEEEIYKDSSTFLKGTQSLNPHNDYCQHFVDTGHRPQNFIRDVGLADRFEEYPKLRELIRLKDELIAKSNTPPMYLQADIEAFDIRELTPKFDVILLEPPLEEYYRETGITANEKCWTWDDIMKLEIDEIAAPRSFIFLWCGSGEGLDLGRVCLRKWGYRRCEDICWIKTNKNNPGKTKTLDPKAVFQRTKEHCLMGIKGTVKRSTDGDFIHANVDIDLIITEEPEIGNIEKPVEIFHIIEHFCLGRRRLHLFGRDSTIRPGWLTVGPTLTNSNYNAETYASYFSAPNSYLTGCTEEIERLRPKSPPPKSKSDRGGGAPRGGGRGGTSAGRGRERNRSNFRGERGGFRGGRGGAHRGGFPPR
# T1 sequence (Q86U44 354-580): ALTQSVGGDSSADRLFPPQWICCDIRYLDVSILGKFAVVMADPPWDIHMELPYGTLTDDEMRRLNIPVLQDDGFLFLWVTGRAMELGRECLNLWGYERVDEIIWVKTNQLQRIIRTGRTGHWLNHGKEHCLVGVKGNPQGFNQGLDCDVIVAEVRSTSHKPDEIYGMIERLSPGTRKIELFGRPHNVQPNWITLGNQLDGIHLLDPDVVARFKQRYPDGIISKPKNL
# T1 sequence (Q9HCE5 107-395 partner limits assumed): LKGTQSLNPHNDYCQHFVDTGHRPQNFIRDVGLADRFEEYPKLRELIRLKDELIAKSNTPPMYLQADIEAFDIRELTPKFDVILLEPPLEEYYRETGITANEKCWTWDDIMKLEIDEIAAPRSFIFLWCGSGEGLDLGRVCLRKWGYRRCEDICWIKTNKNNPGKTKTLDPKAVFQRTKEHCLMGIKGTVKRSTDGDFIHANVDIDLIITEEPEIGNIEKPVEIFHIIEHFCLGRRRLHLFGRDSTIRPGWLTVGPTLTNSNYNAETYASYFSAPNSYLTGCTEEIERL
# T1 sequence (Q96SW2 318-442): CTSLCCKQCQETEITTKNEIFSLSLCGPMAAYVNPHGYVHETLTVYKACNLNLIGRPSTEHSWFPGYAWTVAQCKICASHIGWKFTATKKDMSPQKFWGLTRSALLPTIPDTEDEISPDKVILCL
# Chain of METTL3-14 (Q86U44 whole entry): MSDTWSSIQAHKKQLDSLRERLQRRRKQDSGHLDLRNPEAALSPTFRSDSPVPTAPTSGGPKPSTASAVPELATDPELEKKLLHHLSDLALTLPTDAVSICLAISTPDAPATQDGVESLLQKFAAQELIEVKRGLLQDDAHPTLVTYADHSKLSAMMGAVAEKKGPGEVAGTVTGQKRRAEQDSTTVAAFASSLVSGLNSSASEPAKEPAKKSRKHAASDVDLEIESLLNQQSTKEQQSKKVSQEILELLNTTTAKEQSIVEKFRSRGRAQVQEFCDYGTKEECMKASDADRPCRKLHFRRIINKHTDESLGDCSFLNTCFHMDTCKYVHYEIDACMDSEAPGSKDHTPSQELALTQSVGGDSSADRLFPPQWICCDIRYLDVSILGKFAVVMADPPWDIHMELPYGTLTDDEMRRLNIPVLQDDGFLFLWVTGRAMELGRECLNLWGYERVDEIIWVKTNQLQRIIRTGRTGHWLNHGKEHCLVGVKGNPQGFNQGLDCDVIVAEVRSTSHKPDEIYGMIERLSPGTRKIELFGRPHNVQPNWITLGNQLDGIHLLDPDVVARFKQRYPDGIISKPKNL
# Chain of METTL3-14 (Q9HCE5 whole entry, further chain): as the sequence (Q9HCE5 whole entry partner) above
SMILES,TCFA amplitude (mean ± SEM) [1],ECmax (nM) ± SD [1] [nM],IC50 (METTL3-14) [nM],MOLM-13 West. blot at 24h 2 μM comp conc. Degradation (%) of METTL14 (METTL14),"viability at 72 h, 0.6 µM [2] [%]","viability at 72 h, 1.25 µM [2] [%]","viability at 72 h, […] [2] [%]","viability at 72 h, 5 µM [2] [%]","viability at 72 h, 10 µM [2] [%]",MOLM-13 West. blot at 24h 2 μM comp conc. Degradation (%) of METTL3 (METTL3)
CC1(C)CCN(Cc2cc(F)c(N3CC(=O)NC4(CCN(c5cc(NCc6cccc(CNC(=O)CCCCCNc7cccc8c7C(=O)N(C7CCC(=O)NC7=O)C8=O)c6)ncn5)CC4)C3)cc2F)CC1 (stereo not shown) [Compound 15],0.8 ± 0.1,640 ± 30,33 ± 4,/ (Degradation <10% or stabilization),91.2,94.8,97.2,89.4,84.6,/ (Degradation <10% or stabilization)
CC1(C)CCN(Cc2cc(F)c(N3CC(=O)NC4(CCN(c5cc(NCc6cccc(CNC(=O)CCCCCCCCNc7cccc8c7CN(C7CCC(=O)NC7=O)C8=O)c6)ncn5)CC4)C3)cc2F)CC1 (stereo not shown) [Compound 16],1.0 ± 0.0,430 ± 180,67 ± 11,39 ± 13%,,,,,103,24 ± 14%
CC1(C)CCN(Cc2cc(F)c(N3CC(=O)NC4(CCN(c5cc(NCc6cccc(CNC(=O)CCCCCCCCCCNc7cccc8c7CN(C7CCC(=O)NC7=O)C8=O)c6)ncn5)CC4)C3)cc2F)CC1 (stereo not shown) [Compound 17],1.0 ± 0.0,920 ± 160,160 ± 20,13 ± 6%,106,109,112,106,106,/ (Degradation <10% or stabilization)
CC1(C)CCN(Cc2cc(F)c(N3CC(=O)NC4(CCN(c5cc(NCc6cccc(CNC(=O)CCn7cc(CNc8cccc9c8C(=O)N(C8CCC(=O)NC8=O)C9=O)nn7)c6)ncn5)CC4)C3)cc2F)CC1 (stereo not shown) [Compound 18],0.6 ± 0.1,80 ± 0,14 ± 3,30 ± 12%,101,105,104,102,105,19 ± 13%
CC1(C)CCN(Cc2cc(F)c(N3CC(=O)NC4(CCN(c5cc(NCc6cccc(CNC(=O)CCCCCCCCn7cc(CNc8cccc9c8C(=O)N(C8CCC(=O)NC8=O)C9=O)nn7)c6)ncn5)CC4)C3)cc2F)CC1 (stereo not shown) [Compound 19],0.9 ± 0.1,920 ± 150,88 ± 21,40% and 40 ± 16%,104,104,102,97.1,87.6,33% and 33 ± 17%
CC1(C)CCN(Cc2cc(F)c(N3CC(=O)NC4(CCN(c5cc(NCC6CCN(C(=O)CCCNc7ccc8c(c7)C(=O)N(C7CCC(=O)NC7=O)C8=O)CC6)ncn5)CC4)C3)cc2F)CC1 (stereo not shown) [Compound 23],1.0 ± 0.1,160 ± 80,33 ± 12,57 ± 8%,95.3,93.3,95.2,87.3,78.2,50% and 50 ± 12%
CC1(C)CCN(Cc2cc(F)c(N3CC(=O)NC4(CCN(c5cc(NCC6CCN(C(=O)CCCCCCCNc7cccc8c7C(=O)N(C7CCC(=O)NC7=O)C8=O)CC6)ncn5)CC4)C3)cc2F)CC1 (stereo not shown) [Compound 25],1.2 ± 0.1,1200 ± 120,110 ± 10,36 ± 7%,102,94.8,92.1,87,83.2,20 ± 9%
CC1(C)CCN(Cc2cc(F)c(N3CC(=O)NC4(CCN(c5cc(NCc6cn(CCCCCCCCC(=O)Nc7cccc8c7CN(C7CCC(=O)NC7=O)C8=O)nn6)ncn5)CC4)C3)cc2F)CC1 (stereo not shown) [Compound 26],0.8 ± 0.0,190 ± 80,34 ± 11,12 ± 5%,97.9,92.6,91.2,96.6,97.3,13% and 13 ± 30%
